Holding throughout (format): physicochemical
The nature of series [1]: Solvent-mediated transformation test. The following applies: for Crystal form after 1 day / Crystal form after 5 days: stirred at room temperature. The protocol: Each solvent was added to the Form-I crystal of the compound A, and the mixture was stirred at room temperature for 24 hours, and then, insolubles was filtered to prepare a saturated solution. Mixed crystals (about 10 mg) in which the Form-I crystal and the Form-II crystal were mixed at 1:1 were added to each solution, and the resultant mixture was stirred at room temperature for 5 days. Formed crystals were collected through filtration, and the crystal form thereof was confirmed.

Series [2] can be described thus: Crystallization experiments using various solvents, overall outcome. The following applies: operation procedures 1 to 4, Tables 1 to 3. As to the method:
Each of various solvents was added to the Form-I crystal of the present invention (several mg), crystals of the compound A were precipitated according to the following operation procedures, and the crystal form of the precipitated crystals was confirmed. The results of the operation procedures 1 to 3 are shown in Table 1 and Table 2, and the results of the operation procedure 4 are shown in Table 3. The symbol “-” in Table 1 to Table 3 means that no precipitate was obtained.

Series [3] can be described thus: Stability test (sealed glass bottle, 90° C.). The protocol: The Form-II crystal of the compound A was put in a glass bottle, and the glass bottle was tightly sealed and stored at 90° C. The sample was taken out after 1 day, 3 days, and 7 days, and was dissolved in methanol at a concentration of 1 mg/mL. Each solution was subjected to measurement of analogs by HPLC. As for the crystals after 7 days, the crystal form was confirmed.

[4] abbreviates: acetone:water 20:80 saturated with Form-I.
Setting [5] is: acetonitrile saturated with Form-I.
Where [6] appears, read: 90° C., after 1 day, tightly sealed glass bottle.
The mark [7] stands for this setting: 90° C., after 3 days, tightly sealed glass bottle.
Setting [8] is: 90° C., after 7 days, tightly sealed glass bottle.

SMILES strings stand for the structures.

Take `C[C@H](Nc1cc(-c2cnn(C)c2)cc(Nc2cnccn2)n1)c1ccc(F)cc1.O=C(O)/C=C\C(=O)O` [Form-I + Form-II (1:1)]: the “Crystal form after 1 day” value in series [1] (setting [4]) and in series [1] (setting [5]) was “Form-I” each time. Besides, the “Crystal form after 5 days” value in series [1] (setting [4]), in series [1] (setting [5]) and in series [1] (ethyl acetate saturated with Form-I) was “Form-I” throughout. Also, the “crystal form transformation of mixed crystals” value in series [1] (after 5 days, in acetonitrile, ethyl acetate, and water-containing acetone at room temperature) is “all transformed to the Form-I crystal”.
On to `C[C@H](Nc1cc(-c2cnn(C)c2)cc(Nc2cnccn2)n1)c1ccc(F)cc1.O=C(O)/C=C\C(=O)O` [Form-I crystal of the present invention], for which the “crystallization from various solvents (which form crystallizes)” value in series [2] is given as “preferentially crystallized”. In addition, the “thermodynamic stability in solvent” value in series [1] (acetonitrile, ethyl acetate, water-containing acetone at room temperature) is given as “thermodynamically stable”.
Regarding `C[C@H](Nc1cc(-c2cnn(C)c2)cc(Nc2cnccn2)n1)c1ccc(F)cc1.O=C(O)/C=C\C(=O)O` [Form-II], in series [2] (listed as Form-II crystal of the present invention), the “crystallization from various solvents (which form crystallizes)” value is “crystallized only in water-containing systems”. Besides, the Appearance result in series [3] (setting [6]) is “no change”; in series [3] (setting [7]), “no change”; in series [3] (setting [8]) it was “no change”; in series [3] (Before storage), “pale yellow crystal”. Further, the “HPLC area (%)” value in series [3] (setting [6]) came to 99.7%; in series [3] (setting [7]) it was 99.8%; in series [3] (setting [8]) it was 99.6%; in series [3] (Before storage), 99.7%. Further, in series [3] (setting [8]), the “Crystal form after 7 days” value is recorded as “Form-II”.

The values are drawn from US20230250083A1, “CRYSTALS” (NIPPON SHINYAKU CO., LTD., priority 2017, published 2023).
